From patent US20250186541A1, “DLL3 TARGETING PEPTIDES AND CONSTRUCTS THEREOF” (MARIANA ONCOLOGY INC., priority 2023, published 2025) come the findings set out here.

Numbered stars: 1 amine (or outer) side, 2 acyl side, 3 side chain; on linkers, the order of the positions; unused ones are H or OH. Bridge positions count the residues as written; N and C are the ends. Square brackets hold non-standard residues; d marks the D form. Peptide text beside a SMILES is read from it. * marks the point of attachment. X1 = C[C@@]1(C(=O)C[C@@H](Cc2ccccc2)C(=O)[*:2])CCCN1[*:1]; DOTA = O=C(O)CN1CCN(CC(=O)O)CCN(CC(=O)*)CCN(CC(=O)O)CC1; 1Nal = N[C@@H](Cc1cccc2ccccc12)C(=O)O; 2Nal = N[C@@H](Cc1ccc2ccccc2c1)C(=O)O; Ala(4-THP) = N[C@@H](CC1CCOCC1)C(=O)O; 3Pal = N[C@@H](Cc1cccnc1)C(=O)O; Chg = N[C@H](C(=O)O)C1CCCCC1; Tle = CC(C)(C)[C@H](N)C(=O)O; αMeP = C[C@@]1(C(=O)O)CCCN1; Pip = O=C(O)[C@@H]1CCCCN1; CH2 = C([*:1])[*:2]

The assay addresses T1, human DLL3 (Homo sapiens, UniProt Q9NYJ7).
T1 construct: biotin (biotinylated)
T1 sequence (Q9NYJ7 27-618): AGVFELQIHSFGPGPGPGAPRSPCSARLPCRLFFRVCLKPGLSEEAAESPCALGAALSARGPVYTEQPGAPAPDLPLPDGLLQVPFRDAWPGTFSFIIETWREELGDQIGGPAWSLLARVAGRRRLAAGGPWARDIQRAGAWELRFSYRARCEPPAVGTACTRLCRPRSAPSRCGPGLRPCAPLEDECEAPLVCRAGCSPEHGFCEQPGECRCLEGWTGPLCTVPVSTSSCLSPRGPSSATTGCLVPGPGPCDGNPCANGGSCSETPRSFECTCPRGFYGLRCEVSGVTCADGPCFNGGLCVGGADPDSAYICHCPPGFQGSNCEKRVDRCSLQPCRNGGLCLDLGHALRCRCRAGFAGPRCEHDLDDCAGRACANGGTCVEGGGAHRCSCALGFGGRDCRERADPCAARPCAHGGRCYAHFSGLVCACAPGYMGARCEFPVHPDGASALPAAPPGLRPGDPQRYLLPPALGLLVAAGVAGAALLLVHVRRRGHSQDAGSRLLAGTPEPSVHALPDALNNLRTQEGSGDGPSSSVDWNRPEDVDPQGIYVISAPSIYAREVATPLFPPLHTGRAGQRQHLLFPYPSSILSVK
Description: Affinity determination by Surface Plasmon Resonance (SPR), Biacore, 1:1 binding model. Conditions: biotinylated human DLL3 on streptavidin chip, 25° C.; NB = nonbinding. Summed up: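 SPR with biotinylated human DLL3 captured on a streptavidin chip, with a reference surface subtracted. Samples were injected at several concentrations at 100 μL/min in phosphate buffer with 137 mM NaCl, 2.7 mM KCl, 0.05% P20 and 2% DMSO. Kinetic and affinity constants came from a 1:1 binding fit.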
(In general: Surface plasmon resonance follows binding to a sensor surface in real time, without labels.)
What is called Kd is a measure of binding affinity in units of concentration. High values mean a looser complex, low ones a tighter complex. As for `CC(=O)N[C@H](C(=O)N[C@@H](CO)C(=O)N[C@@H](CC(=O)O)C(=O)N[C@H]1CSCSC[C@H](C(=O)N2CCC[C@@]2(C)C(=O)N[C@@H](Cc2ccccc2)C(=O)N[C@@H](CC(=O)O)C(=O)N[C@H](CCCCNC(=O)CN2CCN(CC(=O)O)CCN(CC(=O)O)CCN(CC(=O)O)CC2)C(N)=O)NC(=O)[C@H](CC(N)=O)NC(=O)[C@H](Cc2c[nH]c3ccccc23)NC(=O)[C@H](CCC(N)=O)NC(=O)[C@H](CC(C)C)NC(=O)[C@H](Cc2cccc3ccccc23)NC1=O)C1CCCCC1` [compound 122, Ac-(Chg)-S-D-C(1)-(1Nal)-L-Q-W-N-[D-Cys(1)]-(aMe-P)-F-D-D-Lys(DOTA)-CONH2] (Ac-[Chg]SDC[1Nal]LQWN[dC][αMeP]FD[dK](DOTA)-NH2; linker 4-10 via CH2), the Kd was above 30 nM. Still for that read-out and setting: for `CC(=O)N[C@H](C(=O)N[C@@H](CO)C(=O)N[C@@H](CC(=O)O)C(=O)N[C@H]1CSSC[C@@H](C(=O)N2CCC[C@@]2(C)C(=O)N[C@@H](Cc2ccccc2)C(=O)N[C@@H](CC(=O)O)C(=O)N[C@H](CCCCNC(=O)CN2CCN(CC(=O)O)CCN(CC(=O)O)CCN(CC(=O)O)CC2)C(N)=O)NC(=O)[C@H](CC(N)=O)NC(=O)[C@H](Cc2c[nH]c3ccccc23)NC(=O)[C@H](CCC(N)=O)NC(=O)[C@H](C2CCCCC2)NC(=O)[C@H](Cc2cccc3ccccc23)NC1=O)C1CCCCC1` [compound 123, Ac-(Chg)-S-D-C(3)-(1Nal)-Chg-Q-W-N-C(3)-(aMe-P)-F-D-D-Lys(DOTA)-CONH2] (Ac-[Chg]SDC[1Nal][Chg]QWNC[αMeP]FD[dK](DOTA)-NH2; disulfide 4-10) the value was 0.34 nM; for `CC(=O)N[C@H](C(=O)N[C@@H](CO)C(=O)N[C@@H](CC(=O)O)C(=O)N[C@H]1CSSC[C@@H](C(=O)N2CCC[C@@]2(C)C(=O)N[C@@H](Cc2ccccc2)C(=O)N[C@@H](CC(=O)O)C(=O)N[C@H](CCCCNC(=O)CN2CCN(CC(=O)O)CCN(CC(=O)O)CCN(CC(=O)O)CC2)C(N)=O)NC(=O)[C@H](CC(N)=O)NC(=O)[C@H](Cc2ccc3ccccc3c2)NC(=O)[C@H](CCC(N)=O)NC(=O)[C@H](CC(C)C)NC(=O)[C@H](Cc2cccc3ccccc23)NC1=O)C1CCCCC1` [compound 124, Ac-(Chg)-S-D-C(3)-(1Nal)-L-Q-(2Nal)-N-C(3)-(aMe-P)-F-D-D-Lys(DOTA)-CONH2] (Ac-[Chg]SDC[1Nal]LQ[2Nal]NC[αMeP]FD[dK](DOTA)-NH2; disulfide 4-10), 0.15 nM. `CC(=O)N[C@H](C)C(=O)N[C@H](CO)C(=O)N[C@@H](CC(=O)O)C(=O)N[C@H]1CSSC[C@@H](C(=O)N2CCC[C@@]2(C)C(=O)C[C@@H](Cc2ccccc2)C(=O)N[C@@H](CC(=O)O)C(=O)N[C@H](CCCCNC(=O)CN2CCN(CC(=O)O)CCN(CC(=O)O)CCN(CC(=O)O)CC2)C(N)=O)NC(=O)[C@H](CC(N)=O)NC(=O)[C@H](Cc2ccc3ccccc3c2)NC(=O)[C@H](CCC(N)=O)NC(=O)[C@H](C2CCCCC2)NC(=O)[C@H](Cc2cccc3ccccc23)NC1=O` [compound 126, Ac-(D-Ala)-(D-Ser)-D-C(3)-(1Nal)-(Chg)-Q-(2Nal)-N-C(3)-(aMe-P)-F-D-D-Lys(DOTA)-CONH2] (Ac-[dA][dS]DC[1Nal][Chg]Q[2Nal]NC[X1]D[dK](DOTA)-NH2; disulfide 4-10) had a Kd of 0.26 nM. `CC(=O)N[C@H](C)C(=O)N[C@H](CO)C(=O)N[C@@H](CC(=O)O)C(=O)N[C@H]1CSSC[C@@H](C(=O)N2CCC[C@@]2(C)C(=O)N[C@@H](Cc2ccccc2)C(=O)N[C@@H](CC(=O)O)C(=O)N[C@H](CCCCNC(=O)CN2CCN(CC(=O)O)CCN(CC(=O)O)CCN(CC(=O)O)CC2)C(N)=O)NC(=O)[C@H](CC(N)=O)NC(=O)[C@H](Cc2ccc3ccccc3c2)NC(=O)[C@H](Cc2cccnc2)NC(=O)[C@H](C2CCCCC2)NC(=O)[C@H](Cc2cccc3ccccc23)NC1=O` [compound 127, Ac-(D-Ala)-(D-Ser)-D-C(3)-(1Nal)-(Chg)-(3Pya)-(2Nal)-N-C(3)-(aMe-P)-F-D-D-Lys(DOTA)-CONH2] (Ac-[dA][dS]DC[1Nal][Chg][3Pal][2Nal]NC[αMeP]FD[dK](DOTA)-NH2; disulfide 4-10): the equilibrium dissociation constant (Kd) came out at 0.5 nM. Take `CC(=O)N[C@H](C(=O)N[C@@H](CO)C(=O)N[C@@H](CC(=O)O)C(=O)N[C@H]1CSSC[C@@H](C(=O)N2CCC[C@@]2(C)C(=O)N[C@@H](Cc2ccccc2)C(=O)N[C@@H](CC(=O)O)C(=O)N[C@H](CCCCNC(=O)CN2CCN(CC(=O)O)CCN(CC(=O)O)CCN(CC(=O)O)CC2)C(N)=O)NC(=O)[C@H](CC(N)=O)NC(=O)[C@H](Cc2ccc3ccccc3c2)NC(=O)[C@H](CCC(N)=O)NC(=O)[C@H](C(C)(C)C)NC(=O)[C@H](Cc2cccc3ccccc23)NC1=O)C1CCCCC1` [compound 129, Ac-(Chg)-S-D-C(3)-(1Nal)-(TBG)-Q-(2Nal)-N-C(3)-(aMe-P)-F-D-D-Lys(DOTA)-CONH2] (Ac-[Chg]SDC[1Nal][Tle]Q[2Nal]NC[αMeP]FD[dK](DOTA)-NH2; disulfide 4-10): the “SPR KD (nM)” value was “slow kon”. Take `CC(=O)N[C@H](C(=O)N[C@@H](CO)C(=O)N[C@@H](CC(=O)O)C(=O)N[C@H]1CSSC[C@@H](C(=O)N2CCC[C@@]2(C)C(=O)N[C@@H](Cc2ccccc2)C(=O)N[C@@H](CC(=O)O)C(=O)N[C@H](CCCCNC(=O)CN2CCN(CC(=O)O)CCN(CC(=O)O)CCN(CC(=O)O)CC2)C(N)=O)NC(=O)[C@H](CC(N)=O)NC(=O)[C@H](Cc2ccc3ccccc3c2)NC(=O)[C@H](CCC(N)=O)NC(=O)[C@@H]2CCCCN2C(=O)[C@H](Cc2cccc3ccccc23)NC1=O)C1CCCCC1` [compound 130, Ac-(Chg)-S-D-C(3)-(1Nal)-(PIP)-Q-(2Nal)-N-C(3)-(aMe-P)-F-D-D-Lys(DOTA)-CONH2] (Ac-[Chg]SDC[1Nal][Pip]Q[2Nal]NC[αMeP]FD[dK](DOTA)-NH2; disulfide 4-10): the “SPR KD (nM)” value is given as “slow kon”. `CC(=O)N[C@H](C(=O)N[C@@H](CO)C(=O)N[C@@H](CC(=O)O)C(=O)N[C@H]1CSSC[C@@H](C(=O)N2CCC[C@@]2(C)C(=O)N[C@@H](Cc2ccccc2)C(=O)N[C@@H](CC(=O)O)C(=O)N[C@H](CCCCNC(=O)CN2CCN(CC(=O)O)CCN(CC(=O)O)CCN(CC(=O)O)CC2)C(N)=O)NC(=O)[C@H](CC(N)=O)NC(=O)[C@H](Cc2ccc3ccccc3c2)NC(=O)[C@H](CCC(N)=O)NC(=O)[C@H](C(C)(C)C)NC(=O)[C@H](Cc2cccc3ccccc23)NC1=O)C1CCCCC1` [compound 131, Ac-(Chg)-S-D-C(3)-(1Nal)-(D-Leu)-Q-(2Nal)-N-C(3)-(aMe-P)-F-D-D-Lys(DOTA)-CONH2] (Ac-[Chg]SDC[1Nal][Tle]Q[2Nal]NC[αMeP]FD[dK](DOTA)-NH2; disulfide 4-10) displayed a Kd of 0.95 nM.

`CC(=O)N[C@H](C(=O)N[C@@H](CO)C(=O)N[C@@H](CC(=O)O)C(=O)N[C@H]1CSSC[C@@H](C(=O)N2CCC[C@@]2(C)C(=O)N[C@@H](Cc2ccccc2)C(=O)N[C@@H](CC(=O)O)C(=O)N[C@H](CCCCNC(=O)CN2CCN(CC(=O)O)CCN(CC(=O)O)CCN(CC(=O)O)CC2)C(N)=O)NC(=O)[C@H](CC(N)=O)NC(=O)[C@H](Cc2c[nH]c3ccccc23)NC(=O)[C@H](CC2CCOCC2)NC(=O)[C@H](CC(C)C)NC(=O)[C@H](Cc2cccc3ccccc23)NC1=O)C1CCCCC1` [compound 132, Ac-(Chg)-S-D-C(3)-(1Nal)-L-(THPA)-W-N-C(3)-(aMe-P)-F-D-[D-Lys(DOTA)]-NH2] (Ac-[Chg]SDC[1Nal]L[Ala(4-THP)]WNC[αMeP]FD[dK](DOTA)-NH2; disulfide 4-10) came in with a dissociation constant (Kd) of 0.21 nM.
